Source: ChEMBL document CHEMBL3885881, “DrugMatrix”

Species: Rattus norvegicus
Experiment: DrugMatrix - Regimen: Daily Repeat
Type: toxicity, organism-based, Sprague-Dawley
Parameters: regimen Daily Repeat, gender Male, age 6-8 weeks
Details: in vivo, po, route oral GAVAGE, vehicle 60 % PEG400; for ABSOLUTE BASOPHIL / ABSOLUTE EOSINOPHIL / ABSOLUTE LYMPHOCYTE / ABSOLUTE MONOCYTE / ABSOLUTE SEGMENTED NEUTROPHIL / BASOPHIL / EOSINOPHIL / ERYTHROCYTE COUNT / HEMATOCRIT / HEMOGLOBIN / LEUKOCYTE COUNT / LYMPHOCYTE / MEAN CORPUSCULAR HEMOGLOBIN / MEAN CORPUSCULAR HEMOGLOBIN CONCENTRATION / MEAN CORPUSCULAR VOLUME / MONOCYTE / NEUTROPHIL / NUCLEATED RED BLOOD CELLS / PLATELET COUNT: tissue Blood; for ALANINE AMINOTRANSFERASE / ALBUMIN / ALKALINE PHOSPHATASE / ASPARTATE AMINOTRANSFERASE / BLOOD UREA NITROGEN / CARBON DIOXIDE / CHLORIDE / CHOLESTEROL / CREATINE PHOSPHOKINASE / CREATININE / GLUCOSE / LACTATE DEHYDROGENASE / LIPASE / PHOSPHORUS / POTASSIUM / SODIUM / TOTAL BILIRUBIN / TOTAL PROTEIN / URIC ACID: tissue Plasma
[1] = 0 mg/kg, 72 h, dose level Control, time 3 day
[2] = 0 mg/kg, 120 h, dose level Control, time 5 day
[3] = 0.001 mg/kg, 72 h, dose level Low, time 3 day

Structure (SMILES): N[C@@H](Cc1cc(I)c(Oc2ccc(O)c(I)c2)c(I)c1)C(=O)O [LIOTHYRONINE]
- ABSOLUTE BASOPHIL [1]: 0 CELLS/uL
- ABSOLUTE EOSINOPHIL [1]: 48.67 CELLS/uL
- ABSOLUTE LYMPHOCYTE [1]: 11723.33 CELLS/uL
- ABSOLUTE MONOCYTE [1]: 132.67 CELLS/uL
- ABSOLUTE SEGMENTED NEUTROPHIL [1]: 1362 CELLS/uL
- BASOPHIL [1]: 0%
- EOSINOPHIL [1]: 0.33%
- ERYTHROCYTE COUNT [1]: 5.61 x10E6/uL
- HEMATOCRIT [1]: 33.53%
- HEMOGLOBIN [1]: 13.13 G/DL
- LEUKOCYTE COUNT [1]: 13.27 x10E3/uL
- LYMPHOCYTE [1]: 88.33%
- MEAN CORPUSCULAR HEMOGLOBIN [1]: 23.4 pg
- MEAN CORPUSCULAR HEMOGLOBIN CONCENTRATION [1]: 39.17 G/DL
- MEAN CORPUSCULAR VOLUME [1]: 59.8 fL
- MONOCYTE [1]: 1%
- NEUTROPHIL [1]: 10.33%
- NUCLEATED RED BLOOD CELLS [1]: 0.67 /100WBC
- PLATELET COUNT [1]: 967.33 x10E3/uL
- ALANINE AMINOTRANSFERASE [1]: 60.33 u/L
- ALBUMIN [1]: 4.3 G/DL
- ALKALINE PHOSPHATASE [1]: 403.33 u/L
- ASPARTATE AMINOTRANSFERASE [1]: 87 u/L
- BLOOD UREA NITROGEN [1]: 14.67 mg/dL
- CARBON DIOXIDE [1]: 31 mmol/L
- CHLORIDE [1]: 103 MEQ/L
- CHOLESTEROL [1]: 82.33 mg/dL
- CREATINE PHOSPHOKINASE [1]: 376.33 u/L
- CREATININE [1]: 0.17 mg/dL
- GLUCOSE [1]: 146.33 mg/dL
- LACTATE DEHYDROGENASE [1]: 196.33 u/L
- LIPASE [1]: 12.33 u/L
- PHOSPHORUS [1]: 11.43 mg/dL
- POTASSIUM [1]: 6.79 MEQ/L
- SODIUM [1]: 147.27 MEQ/L
- TOTAL BILIRUBIN [1]: 0.2 mg/dL
- TOTAL PROTEIN [1]: 6.13 G/DL
- URIC ACID [1]: 1.33 mg/dL
- ABSOLUTE BASOPHIL [2]: 0 CELLS/uL
- ABSOLUTE EOSINOPHIL [2]: 19 CELLS/uL
- ABSOLUTE LYMPHOCYTE [2]: 4849 CELLS/uL
- ABSOLUTE MONOCYTE [2]: 38 CELLS/uL
- ABSOLUTE SEGMENTED NEUTROPHIL [2]: 660.67 CELLS/uL
- BASOPHIL [2]: 0%
- EOSINOPHIL [2]: 0.33%
- ERYTHROCYTE COUNT [2]: 4.95 x10E6/uL
- HEMATOCRIT [2]: 29.67%
- HEMOGLOBIN [2]: 11.53 G/DL
- LEUKOCYTE COUNT [2]: 5.57 x10E3/uL
- LYMPHOCYTE [2]: 87.67%
- MEAN CORPUSCULAR HEMOGLOBIN [2]: 23.33 pg
- MEAN CORPUSCULAR HEMOGLOBIN CONCENTRATION [2]: 38.9 G/DL
- MEAN CORPUSCULAR VOLUME [2]: 59.87 fL
- MONOCYTE [2]: 0.67%
- NEUTROPHIL [2]: 11.33%
- NUCLEATED RED BLOOD CELLS [2]: 0.33 /100WBC
- PLATELET COUNT [2]: 653.33 x10E3/uL
- ALANINE AMINOTRANSFERASE [2]: 48.33 u/L
- ALBUMIN [2]: 4.27 G/DL
- ALKALINE PHOSPHATASE [2]: 396 u/L
- ASPARTATE AMINOTRANSFERASE [2]: 75.67 u/L
- BLOOD UREA NITROGEN [2]: 15 mg/dL
- CARBON DIOXIDE [2]: 31.33 mmol/L
- CHLORIDE [2]: 103 MEQ/L
- CHOLESTEROL [2]: 76.33 mg/dL
- CREATINE PHOSPHOKINASE [2]: 182.67 u/L
- CREATININE [2]: 0.2 mg/dL
- GLUCOSE [2]: 181 mg/dL
- LACTATE DEHYDROGENASE [2]: 88 u/L
- LIPASE [2]: 8.33 u/L
- PHOSPHORUS [2]: 12.33 mg/dL
- POTASSIUM [2]: 6.09 MEQ/L
- SODIUM [2]: 146.47 MEQ/L
- TOTAL BILIRUBIN [2]: 0.17 mg/dL
- TOTAL PROTEIN [2]: 6.3 G/DL
- URIC ACID [2]: 1.43 mg/dL
- ABSOLUTE BASOPHIL [3]: 0 CELLS/uL
- ABSOLUTE EOSINOPHIL [3]: 72.67 CELLS/uL
- ABSOLUTE LYMPHOCYTE [3]: 12680.33 CELLS/uL
- ABSOLUTE MONOCYTE [3]: 379.67 CELLS/uL
- ABSOLUTE SEGMENTED NEUTROPHIL [3]: 1067.33 CELLS/uL
- BASOPHIL [3]: 0%
- EOSINOPHIL [3]: 0.67%
- ERYTHROCYTE COUNT [3]: 5.31 x10E6/uL
- HEMATOCRIT [3]: 34.1%
- HEMOGLOBIN [3]: 13.1 G/DL
- LEUKOCYTE COUNT [3]: 14.2 x10E3/uL
- LYMPHOCYTE [3]: 89.33%
- MEAN CORPUSCULAR HEMOGLOBIN [3]: 24.67 pg
- MEAN CORPUSCULAR HEMOGLOBIN CONCENTRATION [3]: 38.47 G/DL
- MEAN CORPUSCULAR VOLUME [3]: 64.17 fL
- MONOCYTE [3]: 2.33%
- NEUTROPHIL [3]: 7.67%
- NUCLEATED RED BLOOD CELLS [3]: 0 /100WBC
- PLATELET COUNT [3]: 1001 x10E3/uL
- ALANINE AMINOTRANSFERASE [3]: 51 u/L
- ALBUMIN [3]: 4.37 G/DL
- ALKALINE PHOSPHATASE [3]: 321 u/L
- ASPARTATE AMINOTRANSFERASE [3]: 82.33 u/L
- BLOOD UREA NITROGEN [3]: 17.33 mg/dL
- CARBON DIOXIDE [3]: 29.67 mmol/L
- CHLORIDE [3]: 105.33 MEQ/L
- CHOLESTEROL [3]: 79.67 mg/dL
- CREATINE PHOSPHOKINASE [3]: 347 u/L
- CREATININE [3]: 0.16 mg/dL
- GLUCOSE [3]: 144 mg/dL
- LACTATE DEHYDROGENASE [3]: 167.33 u/L
- LIPASE [3]: 13 u/L
- PHOSPHORUS [3]: 12.4 mg/dL
- POTASSIUM [3]: 6.56 MEQ/L
- SODIUM [3]: 146.23 MEQ/L
- TOTAL BILIRUBIN [3]: 0.2 mg/dL
- TOTAL PROTEIN [3]: 6.03 G/DL
